Data reported in PubChem BioAssay (NCI).
Values joined by “and” are separate entries in the source; they are usually repeats but may differ in a detail not shown here. Identical values can stand only once.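 Results reflect a 48-hour exposure of cells in 96-well plates to compound at five concentrations. At the GI50, growth is halved. The concentration for full growth arrest is given as TGI.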

Legend:
Assay in all cases: NCI tumour cell line growth inhibition, 48 h
MDA-N = tested on: MDA-N
SNB-78 CNS = tested on: SNB-78 CNS
DMS 273 small cell lung = tested on: DMS 273 small cell lung
KM20L2 colon = tested on: KM20L2 colon
DMS 114 small cell lung = tested on: DMS 114 small cell lung
M19-MEL melanoma = tested on: M19-MEL melanoma
HOP-18 NSCLC = tested on: HOP-18 NSCLC
XF 498 CNS = tested on: XF 498 CNS
RXF-631 renal = tested on: RXF-631 renal
P388 leukemia = tested on: P388 leukemia
P388/ADR leukemia = tested on: P388/ADR leukemia

| SMILES | TGI (MDA-N) | TGI (SNB-78 CNS) | TGI (DMS 273 small cell lung) | TGI (KM20L2 colon) | TGI (DMS 114 small cell lung) | TGI (M19-MEL melanoma) | TGI (HOP-18 NSCLC) | TGI (XF 498 CNS) | further results |
| --- | --- | --- | --- | --- | --- | --- | --- | --- | --- |
| COC(=O)C1=CO[C@@H](OC2OC(CO)C(O)C(O)C2O)[C@@H]2[C@H](C)[C@@H](O)[C@@H](O)[C@]12O (stereo partly specified) | > 100 µM | – | – | – | – | – | – | – | – |
| Cc1cc(Cl)ccc1N1C(=O)C(=O)C(c2nc3ccccc3o2)C(=O)C1=O | – | > 100 µM | > 100 µM | > 100 µM | > 100 µM | > 100 µM | > 100 µM | > 100 µM | – |
| Cc1cccc(Cl)c1NC(=O)c1cccc([N+](=O)[O-])c1O | – | > 100 µM | > 100 µM | > 100 µM | 83.1 µM | – | > 100 µM | > 100 µM | TGI (RXF-631 renal): > 100 µM |
| COc1cccc2c1C(=O)c1c(O)c3c(c(O)c1C2=O)C[C@@](O)(C(C)=O)C[C@@H]3OC1CC(O)C(O)C(C)O1 (stereo partly specified) | 21.4 µM | 59.1 µM | 7.84 µM and 3.46 µM | – | – | 9.24 µM and 6.19 µM | 7.13 µM and 7.74 µM | – | GI50 (P388 leukemia): 0.013 µM; TGI (P388 leukemia): 0.372 µM; TGI (P388/ADR leukemia): 1.64 µM |
| C[CH2][Ge]([CH2]C)([CH2]C)[O]C(=O)C([O][Ge]([CH2]C)([CH2]C)[CH2]C)c1ccccc1 (stereo unspecified) | – | – | – | 42.8 µM | 31.6 µM | 42.9 µM | 59 µM | – | GI50 (KM20L2 colon): 17 µM; GI50 (DMS 114 small cell lung): 5.84 µM; GI50 (M19-MEL melanoma): 16.9 µM; GI50 (HOP-18 NSCLC): 26.7 µM |
| CC(=O)OCC1OC(n2c(=S)n(-c3ccccc3)c(=O)c3cc(Br)ccc32)C(OC(C)=O)C(OC(C)=O)C1OC(C)=O (stereo unspecified) | – | > 100 µM | > 100 µM | > 100 µM | > 100 µM | > 100 µM | – | 61.2 µM and > 100 µM | GI50 (SNB-78 CNS): 41.5 µM and > 10 µM; TGI (RXF-631 renal): > 100 µM; GI50 (XF 498 CNS): 23.6 µM and > 100 µM |
| O=C1C(CO)=C[C@@H](O)[C@H]2O[C@@H]12 | > 100 µM | – | – | – | – | – | – | – | – |
| Nc1cc(N)cc(Cc2ccccc2)c1 | > 100 µM | – | – | – | – | – | – | – | – |
| O=C([CH-]C(=O)c1ccccc1)c1ccccc1.[CH3-].[CH3-].[CH3-].[Sn+4] | – | – | – | 58 µM | – | – | > 100 µM | – | GI50 (KM20L2 colon): 16.3 µM; GI50 (HOP-18 NSCLC): 39 µM |
| Cc1cccc2cc3cccc(C(=O)NCCN(C)C)c3nc12 | – | 11.4 µM | 0.926 µM | 5.11 µM | 1.02 µM | 0.847 µM | 9.35 µM | – | TGI (RXF-631 renal): 27.7 µM |
| NC1=NCC(c2ccccn2)C1c1ccc(F)cc1 (stereo unspecified) | – | > 100 µM | – | > 100 µM | > 100 µM | > 100 µM | > 100 µM | > 100 µM | TGI (RXF-631 renal): > 100 µM |
| NCCn1cnc2nc(NC(=O)c3ccccc3)[nH]c(=O)c21 | – | > 100 µM | – | > 100 µM | > 100 µM | > 100 µM | > 100 µM | – | TGI (RXF-631 renal): > 100 µM |
| COc1cc(/C=C2\NC(=S)C3Cc4c(OC)c(C)c(OC)c(OC)c4C2N3C)c(OC)c(C)c1OC (stereo unspecified) | – | – | > 100 µM | > 100 µM | 92.1 µM | > 100 µM | > 100 µM | – | – |
| Cc1nnc2n1N=C(c1ccc(-c3ccc([N+](=O)[O-])cc3)o1)CS2 | – | > 100 µM | > 100 µM | > 100 µM | – | > 100 µM | – | – | – |
| CC1=C/C(O)CC(=O)Cc2nc(co2)C(=O)N2CCC=C2C(=O)OC(C(C)C)C(C)/C=C\C(=O)NC/C=C\1 (stereo unspecified) | 67.9 µM | – | – | – | – | – | – | – | – |
| Oc1c(Cl)cc(CN(Cc2cc(Cl)c(O)c(Cl)c2)C2CCCCC2)cc1Cl | > 100 µM | – | – | – | – | – | – | – | – |
| Cc1[nH]c(=O)nc(N/N=C/c2ccc(Cl)cc2)c1C(=O)Nc1ccc(Cl)cc1 | > 100 µM | > 100 µM | > 100 µM | > 100 µM | 56.1 µM | > 100 µM | 7.3 µM | 25.2 µM | – |
| CN(C)CCC(/C=C/c1ccccc1)=N\Nc1ccc(Cl)cc1 | – | 21.4 µM | 4.66 µM | 3.62 µM | 5.9 µM | 19.7 µM | 17 µM | – | – |
| COC(=O)[C@@H]1[C@H](O)[C@H](C)[C@H](O)[C@H](C)/C=C\C=C(C)C(=O)Nc2c(C)c(OC(C)=O)c3c(c2O)C(=O)C(C)=C2OCOC(=C23)C(C)=C[C@@](C)(O)[C@H](O)[C@@H](C)[C@H]1OC(C)=O | 41.9 µM | – | – | – | – | – | – | – | – |
| O=C(O)c1nnsc1-c1csnn1 | > 100 µM | – | – | – | – | – | – | – | – |

| SMILES | TGI (MDA-N) | TGI (SNB-78 CNS) | TGI (DMS 273 small cell lung) | TGI (KM20L2 colon) | TGI (DMS 114 small cell lung) | TGI (M19-MEL melanoma) | TGI (HOP-18 NSCLC) | TGI (XF 498 CNS) | further results |
| --- | --- | --- | --- | --- | --- | --- | --- | --- | --- |
| Clc1ccc(N/N=C(\c2ccccc2)c2ccccn2)nc1 | 26.5 µM | – | – | – | – | – | – | – | – |
| CC1NCCc2c1[nH]c1cc(O)ccc21 (stereo unspecified) | – | > 100 µM | – | > 100 µM | > 100 µM | > 100 µM | > 100 µM | > 100 µM | – |
| CN(N=O)C(=O)Nc1ccc(C(=O)O)cc1 | > 100 µM | – | – | – | – | – | – | – | – |
| Cc1ccccc1NC(=O)C(=O)CC(=O)C1CCOC1=O (stereo unspecified) | – | > 100 µM | > 100 µM | > 100 µM | > 100 µM | > 100 µM | > 100 µM | > 100 µM | – |
| COC1C(O)CC(OC2CC(OC3CC(O[C@@H]4C(=O)c5c(cc6cc(OC7CC(OC8CC(O)C(O)C(C)O8)C(O)C(C)O7)c(C)c(O)c6c5O)C[C@H]4[C@H](OC)C(=O)[C@@H](O)[C@@H](C)O)OC(C)C3O)OC(C)C2O)OC1C (stereo partly specified) | – | > 100 µM | 1.67 µM | 0.533 µM | 4.5 µM | > 100 µM | 36 µM | 0.191 µM | – |
| CCP(C)(C)=O | – | > 100 µM | > 100 µM | > 100 µM | > 100 µM | > 100 µM | – | > 100 µM | – |
| O=C1c2ccccc2C(=O)c2sc(Nc3ccc(Cl)cc3)nc21 | – | 8.03 µM | 3.74 µM | 33.9 µM | 3.63 µM | 1.56 µM | 7.26 µM | 4.7 µM | – |
| C/C(=C1/N=C(c2ccccc2)OC1=O)c1ccccc1 | > 100 µM | – | – | – | – | – | – | – | – |
| C/C=C/C=C/CCCCCCCCCCCCC[C@]1(OC)C=CC(CC(=O)OC)OO1 (stereo partly specified) | – | – | – | 51.1 µM | – | 33 µM | – | 44.6 µM | GI50 (KM20L2 colon): 23.9 µM; GI50 (RXF-631 renal): 24 µM; TGI (RXF-631 renal): 56 µM; GI50 (XF 498 CNS): 24.2 µM |
| CC(C)(C)c1cc(-c2c3nc(c(-c4cc(C(C)(C)C)cc(C(C)(C)C)c4)c4ccc([nH]4)c(-c4cc(C(C)(C)C)cc(C(C)(C)C)c4)c4nc(c(-c5cc(C(C)(C)C)cc(C(C)(C)C)c5)c5ccc2[nH]5)C=C4)C=C3)cc(C(C)(C)C)c1 | – | > 100 µM | > 100 µM | > 100 µM | > 100 µM | – | > 100 µM | > 100 µM | TGI (RXF-631 renal): > 100 µM |
| CCCCCCCC(=O)NS(=O)(=O)c1ccccc1 | > 100 µM | – | – | – | – | – | – | – | – |
| CNC(=O)/C(=C/c1ccc(OC)cc1)c1cc(OC)c(OC)c(OC)c1 | 0.71 µM | > 100 µM | > 100 µM | 2.72 µM | > 21.5 µM | > 100 µM | > 100 µM | 65.8 µM | TGI (RXF-631 renal): > 100 µM |
| Cc1cc(Cl)cc2c1NC(=O)C2(O)CC(=O)c1ccc(F)cc1 (stereo unspecified) | – | > 100 µM | > 100 µM | > 100 µM | – | 17.9 µM | 90.7 µM | 66.4 µM | – |
| CCOC(=O)C1=C(C)N(NC(=O)OC)C2(N)N(NC(=O)OC)C(C)=C(C(=O)OCC)C12C#N (stereo unspecified) | – | – | > 100 µM | > 100 µM | > 100 µM | > 100 µM | – | > 100 µM | – |
| CCOC(=O)C1=C(c2ccccc2)NC(c2ccccc2)=C(C(=O)OCC)c2c1c(=O)cc[nH]c2=O | – | > 100 µM | > 100 µM | > 100 µM | – | > 100 µM | – | > 100 µM | TGI (RXF-631 renal): > 100 µM |
| OCCSCC/C(=N\N=C(/CCSCCO)c1ccccc1)c1ccccc1 | – | > 100 µM | – | > 100 µM | > 100 µM | > 100 µM | > 100 µM | > 100 µM | TGI (RXF-631 renal): > 100 µM |
| CCOC(=O)C(O)Cc1cnc2ccccc2n1 (stereo unspecified) | > 100 µM | – | – | – | – | – | – | – | – |
| COc1ccc(C(=O)C/C(=N/NC(N)=S)C(=O)Nc2ccccc2)cc1 | – | > 100 µM | > 100 µM | > 100 µM | > 100 µM | > 100 µM | > 100 µM | > 100 µM | – |
| C=C[Si](C)(C)COC(=O)/C(C#N)=C/C=C/c1ccccc1 | – | > 100 µM | > 100 µM | > 100 µM | > 100 µM | > 100 µM | > 100 µM | – | – |
